Patent US8338565B2, “Macrocyclic compounds for inhibition of tumor necrosis factor alpha” (Ensemble Therapeutics Corporation, priority 2008, dated 2012)
Numbered stars: 1 amine (or outer) side, 2 acyl side, 3 side chain; on linkers, the order of the positions; unused ones are H or OH. Bridge positions count the residues as written; N and C are the ends. Square brackets hold non-standard residues; d marks the D form. Peptide text beside a SMILES is read from it. * marks the point of attachment. Tartaroyl(2R,3R-(OAc)2) = CC(=O)O[C@@H](C(=O)[*:1])[C@@H](OC(C)=O)C(=O)[*:2]; Phe(4-CF3) = N[C@@H](Cc1ccc(C(F)(F)F)cc1)C(=O)O; Phe(4-COOH) = N[C@@H](Cc1ccc(C(=O)O)cc1)C(=O)O; dPhe(2-CF3) = N[C@H](Cc1ccccc1C(F)(F)F)C(=O)O; Bip = N[C@@H](Cc1ccc(-c2ccccc2)cc1)C(=O)O; dBip = N[C@H](Cc1ccc(-c2ccccc2)cc1)C(=O)O; dPhe(4-NH2) = Nc1ccc(C[C@@H](N)C(=O)O)cc1; Phe(4-NH2) = Nc1ccc(C[C@H](N)C(=O)O)cc1; Maleoyl = O=C(/C=C\C(=O)[*:2])[*:1]; d(hPhe) = N[C@H](CCc1ccccc1)C(=O)O; hPhe = N[C@@H](CCc1ccccc1)C(=O)O; 2Thi = N[C@@H](Cc1cccs1)C(=O)O; Cha = N[C@@H](CC1CCCCC1)C(=O)O; d2Thi = N[C@H](Cc1cccs1)C(=O)O; Suc = O=C(CCC(=O)[*:2])[*:1]; Aib = CC(C)(N)C(=O)O; Ava = NCCCCC(=O)O; OtBu = CC(C)(C)O*; βAla = NCCC(=O)O

What follows are compounds tested against T1, TNFα / TNFα receptor (TNFα R1/Fc) (Homo sapiens, UniProt P01375) (assay: Inhibition of binding of TNFα to the TNFα receptor (plate ELISA competition)). Details: Table 2; read-out: Activity (IC50, inhibition of TNFα binding to TNFα R1/Fc).
T1 construct: purchased R&D Systems
T1 sequence (P01375 77-233 limits assumed, species assumed): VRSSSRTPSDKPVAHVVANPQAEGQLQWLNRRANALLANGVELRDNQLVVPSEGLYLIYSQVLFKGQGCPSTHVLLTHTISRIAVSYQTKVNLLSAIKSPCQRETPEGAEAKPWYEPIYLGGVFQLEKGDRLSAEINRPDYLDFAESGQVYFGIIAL
Method: The compounds listed in Table 2 below were assayed for ability to inhibit binding of TNFα to the TNFα receptor (TNFα R1/Fc). The assays were performed as described in the following procedure: TNFα (R&D Systems) was coated on high binding plate wells (Corning 96-well) at a single uniform concentration of 15 nM, 100 μL/well in PBS. The coating proceeded for 30 minutes at 37° C. then 10 minutes at 4° C. The coated plate was washed with PBST, then 250 μL/well of blocking solution (PBST 0.1% BSA, bovine serum albumin) was added and incubation proceeded for 30-45 minutes at room temperature with agitation. The solution phase competition proceeded separately with the dilutions of test compound in PBST (phosphate buffered saline with Tween 20), 2% DMSO in a polypropylene plate (Corning 96-well storage plate) with a single concentration, 8.33 nM of the high affinity receptor for TNFα (R&D Systems). This solution phase incubation proceeded for 30 minutes at room temperature with agitation and was then added to the washed TNFα coated assay plate, 100 μL/well, and was incubated for a further 30 minutes at room temperature with agitation. The assay plate was washed and 100 μL goat anti-human IgG (Fc) HRP labeled antibody in PBST, 13 pM, (KPL Cat#04-10-2) was added to each well. This incubation proceeded for 25-30 minutes at room temperature with agitation. Following this incubation step, the plate was washed and a 100 μL TMB solution (SUREBLUE™ TMB Peroxidase substrate, KPL) was added per well and allowed to stand approximately 3-5 minutes for development. The TMB reaction was stopped with the addition of 0.5N HCl and then the plate was read for absorbance at 450 nm.

IC50 [µM] | SMILES
10 to 30 | O=C(O)CCCNC(=O)[C@@H]1Cc2ccc(cc2)NC(=O)[C@H](O)[C@@H](O)C(=O)N[C@H](Cc2cccs2)C(=O)N[C@@H](Cc2ccc(-c3ccccc3)cc2)C(=O)N[C@H](CCc2ccccc2)C(=O)N1 [Compound 402]
> 100 | O=C1CCC(=O)N[C@H](Cc2cccs2)C(=O)N[C@@H](Cc2ccccc2)C(=O)N[C@H](Cc2ccccc2)C(=O)N[C@H](C(=O)O)Cc2ccc(cc2)N1 [Compound 83] ([d2Thi]F[dF][Phe(4-NH2)]-OH; linker N-4 via Suc)
< 10 | O=C1COc2ccc(cc2)C[C@@H](C(=O)NCS(=O)(=O)O)NC(=O)[C@H](CCc2ccccc2)NC(=O)[C@@H](Cc2ccc(-c3ccccc3)cc2)NC(=O)[C@H](Cc2ccc(-c3ccncc3)cc2)N1 [Compound 617]
> 100 | O=C1CCNC(=O)c2ccc(cc2)C[C@@H](C(=O)O)NC(=O)[C@@H](Cc2ccccc2)NC(=O)[C@@H](Cc2ccc(-c3ccccc3)cc2)NC(=O)[C@@H](CCc2ccccc2)N1 [Compound 469] ([βAla][d(hPhe)][dBip][dF][Phe(4-COOH)]-OH; lactam N-5)
> 100 | O=C(O)CN1Cc2cccc(c2)CNC(=O)CCC(=O)N[C@H](Cc2cccs2)C(=O)N[C@@H](Cc2ccc(-c3ccccc3)cc2)C(=O)N[C@H](Cc2ccccc2)C1=O [Compound 7]
< 10 | O=C1COc2ccc(cc2)C[C@@H](C(=O)O)NC(=O)[C@H](CCc2ccccc2)NC(=O)[C@@H](Cc2ccc(-c3ccccc3)cc2)NC(=O)[C@H](Cc2ccccc2C(F)(F)F)N1 [Compound 689]
> 100 | CC(=O)O[C@H]1C(=O)Nc2ccc(cc2)C[C@H](C(=O)N[C@@H](Cc2ccccc2)C(=O)O)NC(=O)[C@H](Cc2ccccc2)NC(=O)[C@@H](Cc2ccc(-c3ccccc3)cc2)NC(=O)[C@H](Cc2cccs2)NC(=O)[C@@H]1OC(C)=O [Compound 413] ([2Thi][dBip]F[dPhe(4-NH2)]F-OH; linker N-4 via Tartaroyl(2R,3R-(OAc)2))
> 100 | O=C1N[C@H](Cc2ccco2)C(=O)N[C@@H](C(=O)O)Cc2ccc(cc2)NC(=O)[C@H](O)[C@@H](O)C(=O)N[C@H](Cc2cccs2)C(=O)N[C@H]1Cc1ccc(Br)cc1 [Compound 155]
> 100 | O=C1CCC(=O)N[C@@H](Cc2cccs2)C(=O)N[C@@H](Cc2ccc(-c3ccccc3)cc2)C(=O)N[C@@H](Cc2ccccc2)C(=O)N[C@@H](C(=O)O)Cc2ccc(cc2)N1 [Compound 502] ([2Thi][Bip]F[dPhe(4-NH2)]-OH; linker N-4 via Suc)
< 10 | O=C1CCC(=O)N[C@H](CCc2ccccc2)C(=O)N[C@@H](Cc2ccc(-c3ccccc3)cc2)C(=O)N[C@H](Cc2ccccc2)C(=O)N[C@@H](C(=O)O)Cc2ccc(cc2)N1 [Compound 172] ([d(hPhe)][Bip][dF][dPhe(4-NH2)]-OH; linker N-4 via Suc)
< 10 | CC(C)(NC(=O)[C@@H]1Cc2ccc(cc2)NC(=O)CCC(=O)N[C@H](Cc2cccs2)C(=O)N[C@@H](Cc2ccc(-c3ccccc3)cc2)C(=O)N[C@H](Cc2ccccc2)C(=O)N1)C(=O)O [Compound 25] ([d2Thi][Bip][dF][Phe(4-NH2)][Aib]-OH; linker N-4 via Suc)
> 100 | O=C1COc2ccc(cc2)C[C@@H](C(=O)O)NC(=O)[C@H](CCc2ccccc2)NC(=O)[C@@H](Cc2ccc(-c3ccccn3)cc2)NC(=O)[C@H](Cc2ccccn2)N1 [Compound 667]
> 100 | O=C(O)CCCCNC(=O)[C@@H]1Cc2ccc(cc2)NC(=O)CCC(=O)N[C@H](Cc2ccccc2)C(=O)N[C@@H](Cc2ccc(-c3ccccc3)cc2)C(=O)N[C@H](CCc2ccccc2)C(=O)N1 [Compound 461] ([dF][Bip][d(hPhe)][Phe(4-NH2)][Ava]-OH; linker N-4 via Suc)
> 100 | O=C1CCC(=O)N[C@H](CCc2ccccc2)C(=O)N[C@@H](Cc2ccc(-c3ncccn3)cc2)C(=O)N[C@H](Cc2ccccc2)C(=O)N[C@H](C(=O)O)Cc2ccc(cc2)N1 [Compound 114]
> 100 | CC(=O)O[C@H]1C(=O)Nc2ccc(cc2)C[C@@H](C(=O)N[C@@H](Cc2ccccc2)C(=O)O)NC(=O)[C@H](Cc2ccccc2)NC(=O)[C@@H](Cc2ccc(-c3ccccc3)cc2)NC(=O)[C@H](Cc2cccs2)NC(=O)[C@@H]1OC(C)=O [Compound 414] ([2Thi][dBip]F[Phe(4-NH2)]F-OH; linker N-4 via Tartaroyl(2R,3R-(OAc)2))
10 to 30 | O=C1COc2ccc(cc2)C[C@@H](C(=O)O)NC(=O)[C@H](CCc2ccccc2)NC(=O)[C@@H](Cc2ccc(-c3ccccc3)cc2)NC(=O)[C@H](Cc2cccc(C(F)(F)F)c2)N1 [Compound 690]

IC50 [µM] | SMILES
< 10 | CC(=O)NCCCC[C@@H]1NC(=O)COc2ccc(cc2)C[C@@H](C(=O)O)NC(=O)[C@H](CCc2ccccc2)NC(=O)[C@@H](Cc2ccc(-c3ccccc3)cc2)NC1=O [Compound 508]
30 to 100 | O=C1CCC(=O)N[C@H](Cc2cccs2)C(=O)N[C@@H](Cc2ccc(-c3ccccc3)cc2)C(=O)N[C@H](CCc2ccccc2)C(=O)N[C@H](C(=O)N[C@H](Cc2ccccc2)C(=O)O)Cc2ccc(cc2)N1 [Compound 444] ([d2Thi][Bip][d(hPhe)][Phe(4-NH2)][dF]-OH; linker N-4 via Suc)
> 100 | O=C1COc2ccc(cc2)C[C@@H](C(=O)O)NC(=O)[C@H](Cc2ccccc2)NC(=O)[C@@H](Cc2ccc(F)cc2)NC(=O)[C@H](Cc2cccs2)N1 [Compound 355]
30 to 100 | CC(C)(C)OC(=O)CC[C@H]1NC(=O)[C@H](Cc2ccc(-c3ccccc3)cc2)NC(=O)[C@@H](Cc2cccs2)NC(=O)CCC(=O)Nc2ccc(cc2)C[C@@H](C(=O)O)NC1=O [Compound 67] ([d2Thi][Bip][dE](OtBu)[Phe(4-NH2)]-OH; linker N-4 via Suc)
> 100 | O=C1CCNC(=O)c2ccc(cc2)C[C@@H](C(=O)O)NC(=O)[C@@H](Cc2ccccc2)NC(=O)[C@H](Cc2ccc(-c3ccccc3)cc2)NC(=O)[C@H](CCc2ccccc2)N1 [Compound 467] ([βAla][hPhe][Bip][dF][Phe(4-COOH)]-OH; lactam N-5)
> 100 | O=C1COc2ccc(cc2)C[C@@H](C(=O)O)NC(=O)[C@H](CCc2ccccc2)NC(=O)[C@@H](Cc2ccc(-c3ccccn3)cc2)NC(=O)[C@H](Cc2cccnc2)N1 [Compound 663]
> 100 | O=C1COc2ccc(cc2)C[C@@H](C(=O)O)NC(=O)[C@H](c2ccccc2)NC(=O)[C@@H](Cc2ccc(-c3ccccc3)cc2)NC(=O)[C@H](Cc2cccs2)N1 [Compound 368]
< 10 | O=C1/C=C\C(=O)N[C@@H](CC2CCCCC2)C(=O)N[C@@H](Cc2ccc(-c3ccccc3)cc2)C(=O)N[C@H](CCc2ccccc2)C(=O)N[C@H](C(=O)O)Cc2ccc(cc2)N1 [Compound 197] ([Cha][Bip][d(hPhe)][Phe(4-NH2)]-OH; linker N-4 via Maleoyl)
30 to 100 | O=C1CCC(=O)N[C@H](Cc2ccccc2C(F)(F)F)C(=O)N[C@@H](Cc2ccc(C(F)(F)F)cc2)C(=O)N[C@H](Cc2ccccc2)C(=O)N[C@H](C(=O)O)Cc2ccc(cc2)N1 [Compound 163] ([dPhe(2-CF3)][Phe(4-CF3)][dF][Phe(4-NH2)]-OH; linker N-4 via Suc)
30 to 100 | O=C1N[C@H](Cc2ccccc2)C(=O)N[C@@H](C(=O)O)Cc2ccc(cc2)NC(=O)[C@H](O)[C@@H](O)C(=O)N[C@H](Cc2cccs2)C(=O)N[C@H]1Cc1ccc(Br)cc1 [Compound 242]
> 100 | O=C1COc2ccc(cc2)C[C@@H](C(=O)O)NC(=O)[C@@H]2CCCN2C(=O)[C@@H](Cc2ccc(-c3ccccc3)cc2)NC(=O)[C@H](Cc2cccs2)N1 [Compound 250]
> 100 | O=C1CCC(=O)N[C@H](Cc2c[nH]c3ccccc23)C(=O)N[C@@H](Cc2ccc(-c3ccccc3)cc2)C(=O)N[C@H](Cc2ccccc2)C(=O)N[C@H](C(=O)O)Cc2ccc(cc2)N1 [Compound 125] ([dW][Bip][dF][Phe(4-NH2)]-OH; linker N-4 via Suc)
< 10 | O=C1Nc2ccc(cc2)C[C@H](C(=O)N[C@@H](Cc2ccccc2)C(=O)O)NC(=O)[C@@H](Cc2ccccc2)NC(=O)[C@H](Cc2ccc(-c3ccccc3)cc2)NC(=O)[C@@H](Cc2cccs2)NC(=O)C2CC12 (some centres unmarked) [Compound 708]
30 to 100 | O=C(O)CCCCNC(=O)[C@@H]1Cc2ccc(cc2)NC(=O)CCC(=O)N[C@H](Cc2cccs2)C(=O)N[C@@H](Cc2ccc(-c3ccccc3)cc2)C(=O)N[C@H](CCc2ccccc2)C(=O)N1 [Compound 450] ([d2Thi][Bip][d(hPhe)][Phe(4-NH2)][Ava]-OH; linker N-4 via Suc)
> 100 | O=C1CCC(=O)N[C@H](Cc2cccs2)C(=O)N[C@@H](Cc2ccc(-c3ccccc3)cc2)C(=O)N[C@H](Cc2ccccc2)C(=O)N[C@H](C(=O)O)CCCCN1 [Compound 42] ([d2Thi][Bip][dF]K-OH; linker N-4 via Suc)
> 100 | O=C(O)[C@@H]1Cc2ccc(cc2)NC(=O)[C@H](O)[C@@H](O)C(=O)N[C@@H](Cc2cccs2)C(=O)N[C@H](Cc2ccc(-c3ccccc3)cc2)C(=O)N[C@@H](Cc2ccccc2)C(=O)N1 [Compound 271]
